Laboratory results as given in patent publication EP1935986B1, “Luminogenic and fluorogenic compounds and methods to detect molecules or conditions” (priority 2005, dated 2006).

Tests used:
[1] = system: thermostable luciferase (Luc 146-1H2); experiment: Thermostable luciferase reaction with luciferin derivatives: light readings; assay type: biochemical
Procedure: (§1) This stock was used to produce enzyme stock solution having of 200 µg/ml enzyme solution in 1 mg/ml BSA, 200 mM HEPES buffer, pH 8.0, 20 mM MgCl2.
(§2) Solutions were made using a 1 M DTT solution, pH adjusted to 8.0, a 20 mM Coenzyme A solution in water (both described in examples above), a 100 mM ATP solution and water to create the following solutions: Sol'A, 100 µM ATP; Sol'B, 100 µM ATP, 4 mM Coenzyme A; Sol'n C, 100 µM ATP, 400 mM DTT, and; Sol'n D, 100 µM ATP, 4 mM Coenzyme A and 400 mM DTT.
The following reactions were prepared (Table 47) Table 47
(§3) After assembly, the reactions were initiated by addition of 25 µl of the thermostable luciferase stock solution above and mixing the tube contents. A 50 µl sample was immediately removed and placed in a luminometer tube and the light read and the tube then replaced in a tube rack at room temperature. While the light reading was being taken, a 5 µl sample of the remaining reaction (which was kept at room temperature) was diluted into 495 µl of 50 mM BisTris, pH 6.5, 1 mg/ml BSA, 1 mM EDTA prechilled to 4°C and the tube mixed and placed on ice. The light produced by the samples in the luminometer tubes were re-read at 20, 40, 60, 90 and 120 minutes post enzyme addition. Additional 5 µl samples were taken and diluted as above at 60 and 120 minutes post enzyme addition. Once all these readings and samples were taken, 50 µl of the diluted samples was mixed with 50 µl of Steady Glo in luminometer tubes, the tubes incubated 10 minutes on ice then the light produced was read on a Turner TD 20/20 luminometer.

[2] = system: thermostable luciferase (Luc 146-1H2); experiment: Residual thermostable luciferase activity after reaction with luciferin derivatives (Steady Glo); assay type: biochemical
Procedure: as §1, §2, §3

O=C(O)[C@H]1CSC(c2nc3ccc(OCc4ccccc4)cc3s2)=N1 [L'in-BE]
light readings from the reaction samples ([1]; substrate 6.25 (L'in-BE: 6.26), + Co A & DTT, Time 0 min): 436.9 | light readings from the reaction samples ([1]; substrate 6.25 (L'in-BE: 6.26), + Co A & DTT, Time 20 min): 80.41 | light readings from the reaction samples ([1]; substrate 6.25 (L'in-BE: 6.26), + Co A & DTT, Time 40 min): 38.47 | light readings from the reaction samples ([1]; substrate 6.25 (L'in-BE: 6.26), + Co A & DTT, Time 60 min): 22.83 | light readings from the reaction samples ([1]; substrate 6.25 (L'in-BE: 6.26), + Co A & DTT, Time 90 min): 16.08 | light readings from the reaction samples ([1]; substrate 6.25 (L'in-BE: 6.26), + Co A & DTT, Time 120 min): 12.01 | light readings from the reaction samples ([1]; substrate 6.25 (L'in-BE: 6.26), + Co A, Time 0 min): 2575 | light readings from the reaction samples ([1]; substrate 6.25 (L'in-BE: 6.26), + Co A, Time 20 min): 207.1 | light readings from the reaction samples ([1]; substrate 6.25 (L'in-BE: 6.26), + Co A, Time 40 min): 83.73 | light readings from the reaction samples ([1]; substrate 6.25 (L'in-BE: 6.26), + Co A, Time 60 min): 45.54 | light readings from the reaction samples ([1]; substrate 6.25 (L'in-BE: 6.26), + Co A, Time 90 min): 24 | light readings from the reaction samples ([1]; substrate 6.25 (L'in-BE: 6.26), + Co A, Time 120 min): 14.42 | light readings from the reaction samples ([1]; substrate 6.25 (L'in-BE: 6.26), + DTT, Time 0 min): 455.6 | light readings from the reaction samples ([1]; substrate 6.25 (L'in-BE: 6.26), + DTT, Time 20 min): 71.9 | light readings from the reaction samples ([1]; substrate 6.25 (L'in-BE: 6.26), + DTT, Time 40 min): 33.73 | light readings from the reaction samples ([1]; substrate 6.25 (L'in-BE: 6.26), + DTT, Time 60 min): 21.49 | light readings from the reaction samples ([1]; substrate 6.25 (L'in-BE: 6.26), + DTT, Time 90 min): 13.67 | light readings from the reaction samples ([1]; substrate 6.25 (L'in-BE: 6.26), + DTT, Time 120 min): 9.847 | light readings from the reaction samples ([1]; substrate 6.25 (L'in-BE: 6.26), Alone, Time 0 min): 785.5 | light readings from the reaction samples ([1]; substrate 6.25 (L'in-BE: 6.26), Alone, Time 20 min): 62.64 | light readings from the reaction samples ([1]; substrate 6.25 (L'in-BE: 6.26), Alone, Time 40 min): 22.11 | light readings from the reaction samples ([1]; substrate 6.25 (L'in-BE: 6.26), Alone, Time 60 min): 11.22 | light readings from the reaction samples ([1]; substrate 6.25 (L'in-BE: 6.26), Alone, Time 90 min): 5.189 | light readings from the reaction samples ([1]; substrate 6.25 (L'in-BE: 6.26), Alone, Time 120 min): 2.995 | light readings from the reaction samples ([1]; substrate 25, + Co A & DTT, Time 0 min): 402 | light readings from the reaction samples ([1]; substrate 25, + Co A & DTT, Time 20 min): 85.37 | light readings from the reaction samples ([1]; substrate 25, + Co A & DTT, Time 40 min): 45.87 | light readings from the reaction samples ([1]; substrate 25, + Co A & DTT, Time 60 min): 27.94 | light readings from the reaction samples ([1]; substrate 25, + Co A & DTT, Time 90 min): 18.94 | light readings from the reaction samples ([1]; substrate 25, + Co A & DTT, Time 120 min): 13.13 | light readings from the reaction samples ([1]; substrate 25, + Co A, Time 0 min): 972.4 | light readings from the reaction samples ([1]; substrate 25, + Co A, Time 20 min): 127.4 | light readings from the reaction samples ([1]; substrate 25, + Co A, Time 40 min): 58.9 | light readings from the reaction samples ([1]; substrate 25, + Co A, Time 60 min): 31.96 | light readings from the reaction samples ([1]; substrate 25, + Co A, Time 90 min): 17.54 | light readings from the reaction samples ([1]; substrate 25, + Co A, Time 120 min): 9.727 | light readings from the reaction samples ([1]; substrate 25, + DTT, Time 0 min): 448.6 | light readings from the reaction samples ([1]; substrate 25, + DTT, Time 20 min): 84.21 | light readings from the reaction samples ([1]; substrate 25, + DTT, Time 40 min): 43.77 | light readings from the reaction samples ([1]; substrate 25, + DTT, Time 60 min): 27.21 | light readings from the reaction samples ([1]; substrate 25, + DTT, Time 90 min): 18.48 | light readings from the reaction samples ([1]; substrate 25, + DTT, Time 120 min): 12.93 | light readings from the reaction samples ([1]; substrate 25, Alone, Time 0 min): 623.2 | light readings from the reaction samples ([1]; substrate 25, Alone, Time 20 min): 73.96 | light readings from the reaction samples ([1]; substrate 25, Alone, Time 40 min): 28.76 | light readings from the reaction samples ([1]; substrate 25, Alone, Time 60 min): 13.42 | light readings from the reaction samples ([1]; substrate 25, Alone, Time 90 min): 5.528 | light readings from the reaction samples ([1]; substrate 25, Alone, Time 120 min): 2.549 | light readings from the reaction samples ([1]; substrate 100, + Co A & DTT, Time 0 min): 140.4 | light readings from the reaction samples ([1]; substrate 100, + Co A & DTT, Time 20 min): 71.5 | light readings from the reaction samples ([1]; substrate 100, + Co A & DTT, Time 40 min): 45.66 | light readings from the reaction samples ([1]; substrate 100, + Co A & DTT, Time 60 min): 29.32 | light readings from the reaction samples ([1]; substrate 100, + Co A & DTT, Time 90 min): 19.92 | light readings from the reaction samples ([1]; substrate 100, + Co A & DTT, Time 120 min): 13.08 | light readings from the reaction samples ([1]; substrate 100, + Co A, Time 0 min): 191.9 | light readings from the reaction samples ([1]; substrate 100, + Co A, Time 20 min): 63.85 | light readings from the reaction samples ([1]; substrate 100, + Co A, Time 40 min): 29.28 | light readings from the reaction samples ([1]; substrate 100, + Co A, Time 60 min): 14.78 | light readings from the reaction samples ([1]; substrate 100, + Co A, Time 90 min): 6.652 | light readings from the reaction samples ([1]; substrate 100, + Co A, Time 120 min): 3.014 | light readings from the reaction samples ([1]; substrate 100, + DTT, Time 0 min): 148.7 | light readings from the reaction samples ([1]; substrate 100, + DTT, Time 20 min): 77.9 | light readings from the reaction samples ([1]; substrate 100, + DTT, Time 40 min): 48.39 | light readings from the reaction samples ([1]; substrate 100, + DTT, Time 60 min): 32.26 | light readings from the reaction samples ([1]; substrate 100, + DTT, Time 90 min): 21.71 | light readings from the reaction samples ([1]; substrate 100, + DTT, Time 120 min): 14.25 | light readings from the reaction samples ([1]; substrate 100, Alone, Time 0 min): 160 | light readings from the reaction samples ([1]; substrate 100, Alone, Time 20 min): 48.21 | light readings from the reaction samples ([1]; substrate 100, Alone, Time 40 min): 19.25 | light readings from the reaction samples ([1]; substrate 100, Alone, Time 60 min): 8.305 | light readings from the reaction samples ([1]; substrate 100, Alone, Time 90 min): 2.843 | light readings from the reaction samples ([1]; substrate 100, Alone, Time 120 min): 1.311 | light values obtained upon addition of the diluted reaction samples into Steady Glo reagent ([2]; Substrate 6.25, + Co A & DTT, Time Sample Taken 0 min): 1943 | light values obtained upon addition of the diluted reaction samples into Steady Glo reagent ([2]; Substrate 6.25, + Co A & DTT, Time Sample Taken 60 min): 1235 | light values obtained upon addition of the diluted reaction samples into Steady Glo reagent ([2]; Substrate 6.25, + Co A & DTT, Time Sample Taken 120 min): 1163 | light values obtained upon addition of the diluted reaction samples into Steady Glo reagent ([2]; Substrate 6.25, + Co A, Time Sample Taken 0 min): 1841 | light values obtained upon addition of the diluted reaction samples into Steady Glo reagent ([2]; Substrate 6.25, + Co A, Time Sample Taken 60 min): 518.6 | light values obtained upon addition of the diluted reaction samples into Steady Glo reagent ([2]; Substrate 6.25, + Co A, Time Sample Taken 120 min): 349.1 | light values obtained upon addition of the diluted reaction samples into Steady Glo reagent ([2]; Substrate 6.25, + DTT, Time Sample Taken 0 min): 1860 | light values obtained upon addition of the diluted reaction samples into Steady Glo reagent ([2]; Substrate 6.25, + DTT, Time Sample Taken 60 min): 1173 | light values obtained upon addition of the diluted reaction samples into Steady Glo reagent ([2]; Substrate 6.25, + DTT, Time Sample Taken 120 min): 1067 | light values obtained upon addition of the diluted reaction samples into Steady Glo reagent ([2]; Substrate 6.25, Alone, Time Sample Taken 0 min): 2057 | light values obtained upon addition of the diluted reaction samples into Steady Glo reagent ([2]; Substrate 6.25, Alone, Time Sample Taken 60 min): 406.6 | light values obtained upon addition of the diluted reaction samples into Steady Glo reagent ([2]; Substrate 6.25, Alone, Time Sample Taken 120 min): 267.7 | light values obtained upon addition of the diluted reaction samples into Steady Glo reagent ([2]; Substrate 25, + Co A & DTT, Time Sample Taken 0 min): 1925 | light values obtained upon addition of the diluted reaction samples into Steady Glo reagent ([2]; Substrate 25, + Co A & DTT, Time Sample Taken 60 min): 1102 | light values obtained upon addition of the diluted reaction samples into Steady Glo reagent ([2]; Substrate 25, + Co A & DTT, Time Sample Taken 120 min): 836.3 | light values obtained upon addition of the diluted reaction samples into Steady Glo reagent ([2]; Substrate 25, + Co A, Time Sample Taken 0 min): 1610 | light values obtained upon addition of the diluted reaction samples into Steady Glo reagent ([2]; Substrate 25, + Co A, Time Sample Taken 60 min): 277.8 | light values obtained upon addition of the diluted reaction samples into Steady Glo reagent ([2]; Substrate 25, + Co A, Time Sample Taken 120 min): 143.2 | light values obtained upon addition of the diluted reaction samples into Steady Glo reagent ([2]; Substrate 25, + DTT, Time Sample Taken 0 min): 1675 | light values obtained upon addition of the diluted reaction samples into Steady Glo reagent ([2]; Substrate 25, + DTT, Time Sample Taken 60 min): 910.2 | light values obtained upon addition of the diluted reaction samples into Steady Glo reagent ([2]; Substrate 25, + DTT, Time Sample Taken 120 min): 738.9 | light values obtained upon addition of the diluted reaction samples into Steady Glo reagent ([2]; Substrate 25, Alone, Time Sample Taken 0 min): 1309 | light values obtained upon addition of the diluted reaction samples into Steady Glo reagent ([2]; Substrate 25, Alone, Time Sample Taken 60 min): 157.1 | light values obtained upon addition of the diluted reaction samples into Steady Glo reagent ([2]; Substrate 25, Alone, Time Sample Taken 120 min): 72.57 | light values obtained upon addition of the diluted reaction samples into Steady Glo reagent ([2]; Substrate 100, + Co A & DTT, Time Sample Taken 0 min): 1780 | light values obtained upon addition of the diluted reaction samples into Steady Glo reagent ([2]; Substrate 100, + Co A & DTT, Time Sample Taken 60 min): 1016 | light values obtained upon addition of the diluted reaction samples into Steady Glo reagent ([2]; Substrate 100, + Co A & DTT, Time Sample Taken 120 min): 778.7 | light values obtained upon addition of the diluted reaction samples into Steady Glo reagent ([2]; Substrate 100, + Co A, Time Sample Taken 0 min): 1486 | light values obtained upon addition of the diluted reaction samples into Steady Glo reagent ([2]; Substrate 100, + Co A, Time Sample Taken 60 min): 242.2 | light values obtained upon addition of the diluted reaction samples into Steady Glo reagent ([2]; Substrate 100, + Co A, Time Sample Taken 120 min): 82.03 | light values obtained upon addition of the diluted reaction samples into Steady Glo reagent ([2]; Substrate 100, + DTT, Time Sample Taken 0 min): 1762 | light values obtained upon addition of the diluted reaction samples into Steady Glo reagent ([2]; Substrate 100, + DTT, Time Sample Taken 60 min): 952.1 | light values obtained upon addition of the diluted reaction samples into Steady Glo reagent ([2]; Substrate 100, + DTT, Time Sample Taken 120 min): 691 | light values obtained upon addition of the diluted reaction samples into Steady Glo reagent ([2]; Substrate 100, Alone, Time Sample Taken 0 min): 1245 | light values obtained upon addition of the diluted reaction samples into Steady Glo reagent ([2]; Substrate 100, Alone, Time Sample Taken 60 min): 156.4 | light values obtained upon addition of the diluted reaction samples into Steady Glo reagent ([2]; Substrate 100, Alone, Time Sample Taken 120 min): 61.75
